Data set [1] is described as follows: Evaluation test of elution in phosphate-buffered saline (pH 7.4), elution rate of compound 1 by UPLC-MS. As to conditions: phosphate-buffered saline pH 7.4, 37°C, shaking 60 strokes/min. Format: physicochemical. As for the experimental part: (§1) Quantitative determination of the concentration of the compound 1 in the following Test Examples and Reference Examples was performed using ultra-high performance liquid chromatography with a single quadrupole mass spectrometer as a detector.
An evaluation test of the elution of the fine particle a prepared in Reference Example 1-1 was performed in the same manner as in Test Example 1 mentioned later. Specifically, the fine particle a (10 mg) was added to phosphate-buffered saline (pH 7.4, 30 mL), and using a shaker, the mixture was horizontally shaken at 37° C. for 24 hours at a shaking speed of 60 strokes/min and with a shaking width of 2.0 cm/stroke to evaluate “elution”. Quantitative determination of the concentration of the compound 1 was performed using ultra-high performance liquid chromatography with a single quadrupole mass spectrometer as a detector to calculate an elution rate. The test results of the fine particle a are shown in Table 1 below together with the test results of the compound 1 bulk powder obtained in Test Example 1 mentioned later.
Using the fine particles A, B, C, D and E prepared in Test Example 1-1 and the compound 1 bulk powder, an evaluation test of each elution was performed. Each of the fine particles A, B, C, D and E and the compound 1 bulk powder (10 mg) was added to phosphate-buffered saline (pH 7.4, 30 mL), and using a shaker, the mixtures were horizontally shaken at 37° C. for 24 hours at a shaking speed of 60 strokes/min and with a shaking width of 2.0 cm/stroke to evaluate “elution”. Quantitative determination of the concentration of the compound 1 was performed using ultra-high performance liquid chromatography with a single quadrupole mass spectrometer as a detector to calculate an elution rate.
Using the fine particle F prepared in Test Example 2-1 and the compound 1 bulk powder, an evaluation test of each elution was performed in the same manner as in Test Example 1. Each of the fine particle F and the compound 1 bulk powder (10 mg) was added to phosphate-buffered saline (pH 7.4, 30 mL), and using a shaker, the mixtures were horizontally shaken at 37° C. for 72 hours at a shaking speed of 60 strokes/min and with a shaking width of 2.0 cm/stroke to evaluate “elution”.

Data set [2] is described as follows: Pharmacokinetic evaluation: concentration of compound 1 in plasma after single administration to SD male rats. The class given is in vivo. To be noted: for BA / AUC(0-inf) / Cmax / Tmax / half-life: 5 mg/kg as compound 1, single, SD male rats; for AUC(0-inf) / Cmax / Tmax / half-life: rat, plasma. As to the method: as §1
To evaluate the sustained-release ability of fine particle B, the concentration of the compound 1 in blood was measured over time after subcutaneous administration of the fine particle B or the compound 1 bulk powder to rats or after oral administration of the compound 1 bulk powder to rats. The fine particle B was suspended in physiological saline and the compound 1 bulk powder was dissolved in physiological saline, and then 5 mg/kg each as an amount of the compound 1 was singly administered to SD male rats. After administration, blood was collected over time from the tail vein, and the blood was transferred into a micro test tube treated with heparin, and immediately cooled in ice. After cooling in ice, the blood was immediately centrifuged at 4° C. and 10,000 g for 10 minutes. The concentration of the compound 1 in plasma thus obtained was quantitatively determined using ultra-high performance liquid chromatography with a single quadrupole mass spectrometer as a detector.
Cmax, Tmax, T1/2, AUC0-∞ and BA represent maximum blood concentration (concentration at the peak of blood concentration curve), time to reach maximum blood concentration (time to reach the peak of blood concentration curve), half-life of the concentration of drug in blood, area under curve from initiation of administration to drug elimination and bioavailability, respectively.
To evaluate the sustained-release ability of fine particle F, the concentration of the compound 1 in blood was measured over time after subcutaneous administration of the fine particle F prepared in Test Example 2-1 or the compound 1 bulk powder to rats. The method was same as in Test Example 1-3. Specifically, the fine particle F was suspended in physiological saline and the compound 1 bulk powder was dissolved in physiological saline, and then 5 mg/kg each as an amount of the compound 1 was singly subcutaneously administered to SD male rats. After subcutaneous administration, blood was collected over time from the tail vein, and the blood was transferred into a micro test tube treated with heparin, and immediately cooled in ice. After cooling in ice, the blood was immediately centrifuged at 4° C. and 10,000 g for 10 minutes. The concentration of the compound 1 in plasma thus obtained was quantitatively determined using ultra-high performance liquid chromatography with a single quadrupole mass spectrometer as a detector.
To evaluate the sustained-release ability of the hydrogel a prepared in Reference Example 3-1, the concentration of the compound 1 in blood was measured over time after subcutaneous administration of the hydrogel a or the compound 1 bulk powder to rats. Specifically, the hydrogel a or the compound 1 bulk powder at a dose of 5 mg/kg as an amount of the compound 1 was singly subcutaneously administered to SD male rats. After subcutaneous administration, blood was collected over time from the tail vein, and the blood was transferred into a micro test tube treated with heparin, and immediately cooled in ice. After cooling in ice, the blood was immediately centrifuged at 4° C. and 10,000 g for 10 minutes. The concentration of the compound 1 in plasma thus obtained was quantitatively determined using ultra-high performance liquid chromatography with a single quadrupole mass spectrometer as a detector. […]

The mark [3] stands for this setting: sc, subcutaneous administration.
[4] abbreviates: subcutaneous administration, 5 mg/kg as compound 1, SD male rats.

Structures can show the parent of a compound that is named as a salt.

The AUC(0-inf) is the area under the concentration-time curve extrapolated to infinity. Higher therefore signals high exposure. The term Cmax denotes the peak of the concentration-time curve. For orientation: Tmax means the time from dosing to the highest level. For orientation: half-life means the time needed for the level to fall by half in the phase considered. Lower therefore signals fast loss. As to `CCS(=O)(=O)Nc1ncc(C(F)(F)F)cc1NC(=O)C1CCCCC1` [Compound 1 bulk powder, N-(2-ethylsulfonylamino-5-trifluoromethyl-3-pyridyl)cyclohexanecarboxamide-monosodium salt-monohydrate], the Elution rate in data set [1] (Time 0 h) was 0%; in data set [1] (Time 0.5 h), 83.73 ± 4.31%; in data set [1] (Time 1 h) it was 93.59 ± 1.63%; in data set [1] (Time 3 h), 94.77 ± 2.26%; in data set [1] (Time 6 h), 92.00 ± 2.45%; in data set [1] (Time 12 h), 91.63 ± 1.84%. Also, the Elution rate in data set [1] (Time 24 h) turned out to be 97.10 ± 1.96%; in data set [1] (Time 48 h), 91.10 ± 3.80%; in data set [1] (Time 72 h), 93.29 ± 1.36%. Also, the BA in data set [2] (oral administration) turned out to be 41%; in data set [2] (subcutaneous administration), 67%. Moreover, the AUC(0-inf) in data set [2] (setting [3]) is 8550 ± 600 ng·h/mL; in data set [2] (oral administration), 5160 ± 200 ng·h/mL. Also, the figures for the Cmax in data set [2] (setting [3]) and in data set [2] (oral administration) were 9600 ± 700 ng/mL and 3100 ± 500 ng/mL, respectively. Further, the time of peak concentration (Tmax) in data set [2] (setting [3]) and in data set [2] (oral administration) was 15 min throughout. Besides, the results for the half-life in data set [2] (setting [3]) and in data set [2] (oral administration) were 21.6 min and 68.4 ± 12 min, respectively. Further, the “Concentration of compound 1 in plasma at 12 hours after administration” value in data set [2] (setting [4]) is listed as “below the detection limit”. Moreover, the “Concentration of compound 1 in plasma at 24 hours after administration” value in data set [2] (setting [4]) is on record as “below the detection limit”.
